In US8501794B2, “Compounds as cannabinoid receptor ligands” (priority 2007, dated 2013):
pKi: −log10 of the molar value. Like-named read-outs stand apart in the source and are kept apart here.

Experiments:
rat CB2 = molecular target: T1, rat CB2 (Rattus norvegicus, UniProt Q9QZN9); assay: rat CB2 radioligand binding assay ([3H]CP-55,940 competition); set-up: expressed in transfected cells; host or cells: HEK293
T1 sequence (Q9QZN9 1-360): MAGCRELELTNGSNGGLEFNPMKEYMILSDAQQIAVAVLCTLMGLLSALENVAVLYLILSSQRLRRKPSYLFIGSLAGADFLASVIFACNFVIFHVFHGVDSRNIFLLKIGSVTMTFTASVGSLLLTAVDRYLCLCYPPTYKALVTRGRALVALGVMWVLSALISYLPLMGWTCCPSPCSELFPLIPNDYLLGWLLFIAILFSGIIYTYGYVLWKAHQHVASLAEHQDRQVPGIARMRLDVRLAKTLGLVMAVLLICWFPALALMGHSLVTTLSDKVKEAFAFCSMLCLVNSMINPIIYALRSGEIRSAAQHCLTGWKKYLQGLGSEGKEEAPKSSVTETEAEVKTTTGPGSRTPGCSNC

human CB2 receptors = molecular target: T2, human CB2 receptors (Homo sapiens, UniProt P34972); assay: human CB2 radioligand binding assay ([3H]CP-55,940 competition)
T2 construct: expressed in transfected cells; host or cells: HEK293

[1] = HEK293 membranes, 0.5 nM [3H]CP-55,940, read-out: human CB2 (Ki)
[2] = HEK293 membranes, 0.5 nM [3H]CP-55,940, read-out: rat CB2 (Ki)

T2 sequence (P34972 whole entry): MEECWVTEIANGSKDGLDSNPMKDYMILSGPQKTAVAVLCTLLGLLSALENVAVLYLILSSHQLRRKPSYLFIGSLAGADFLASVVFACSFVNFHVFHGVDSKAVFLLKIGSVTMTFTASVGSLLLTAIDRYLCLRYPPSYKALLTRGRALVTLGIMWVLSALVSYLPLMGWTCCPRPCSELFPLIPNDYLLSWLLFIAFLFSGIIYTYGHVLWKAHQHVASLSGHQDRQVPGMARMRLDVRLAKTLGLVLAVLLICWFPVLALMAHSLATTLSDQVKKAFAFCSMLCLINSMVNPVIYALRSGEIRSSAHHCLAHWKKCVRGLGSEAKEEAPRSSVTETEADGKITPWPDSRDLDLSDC

Compound	pKi (rat CB2)	pKi (human CB2 receptors)	pKi (human CB2 receptors; [1])	pKi (rat CB2; [2])
CC(C)(C)n1cc(Cc2ccco2)/c(=N/C(=O)c2cccc(C(F)(F)F)c2F)s1 [Example 70, N-[(5Z)-2-tert-butyl-4-(2-furylmethyl)isothiazol-5(2H)-ylidene]-2-fluoro-3-(trifluoromethyl)benzamide]	8.38	7.47	–	–
COc1ccc(Cl)cc1C(=O)/N=c1\sn(C(C)(C)C)c(C)c1NC(=O)OC(C)(C)C [Example 162, Tert-butyl [(5Z)-2-tert-butyl-5-{[(5-chloro-2-methoxyphenyl)carbonyl]imino}-3-methyl-2,5-dihydroisothiazol-4-yl]carbamate]	7.33	–	6.92	–
CCCCc1cn(C(C)(C)C)s/c1=N\C(=O)[C@@H]1CC[C@](C)(NC(=O)NC)C1(C)C [Example 247, (1R,3S)—N-[(5Z)-4-butyl-2-tert-butylisothiazol-5(2H)-ylidene]-2,2,3-trimethyl-3-{[(methylamino)carbonyl]amino}cyclopentanecarboxamide]	7.40	7.39	–	–
COc1ccc(Cl)cc1C(=O)/N=c1\sn(C(C)(C)C)cc1COC[C@H]1CCCO1 [Example 89, N-[(5Z)-2-tert-butyl-4-{[(2R)-tetrahydrofuran-2-ylmethoxy]methyl}isothiazol-5(2H)-ylidene]-5-chloro-2-methoxybenzamide]	8.10	–	6.72	–
COc1ccc(Cl)cc1C(=O)/N=c1\sn(C(C)(C)C)c2c1CC1(CC2)OCCO1 [Example 10, N-[(3Z)-1-tert-butyl-1,4,6,7-tetrahydro-3H-spiro[2,1-benzisothiazole-5,2′-[1,3]dioxolan]-3-ylidene]-5-chloro-2-methoxybenzamide]	7.38	–	6.72	–
CCCCc1cn(C(C)(C)C)s/c1=N\C(=O)[C@@]1(C)CC[C@@H](C2=NCCO2)C1(C)C [Example 231, (1S,3R)—N-[(5Z)-4-butyl-2-tert-butylisothiazol-5(2H)-ylidene]-3-(4,5-dihydro-1,3-oxazol-2-yl)-1,2,2-trimethylcyclopentanecarboxamide]	7.96	7.29	–	–
COc1ccc(C#N)cc1C(=O)/N=c1\sn(C(C)(C)C)cc1Cc1cccs1 [Example 53, N-[(5Z)-2-tert-butyl-4-(thien-2-ylmethyl)isothiazol-5(2H)-ylidene]-5-cyano-2-methoxybenzamide]	8.59	7.23	–	–
COc1ccc(Cl)cc1C(=O)/N=c1\sn(C(C)(C)C)cc1COCCF [Example 90, N-[(5Z)-2-tert-butyl-4-[(2-fluoroethoxy)methyl]isothiazol-5(2H)-ylidene]-5-chloro-2-methoxybenzamide]	7.57	–	6.55	–
CCCCc1cn(C(C)(C)C)s/c1=N\C(=O)c1cc(OC(F)(F)F)ccc1OC [Example 63, N-[(5Z)-4-butyl-2-tert-butylisothiazol-5(2H)-ylidene]-2-methoxy-5-(trifluoromethoxy)benzamide]	8.47	7.48	–	–
CCCCc1cn(C(C)(C)C)s/c1=N\C(=O)c1cc(CF)ccc1OC [Example 66, N-[(5Z)-4-butyl-2-tert-butylisothiazol-5(2H)-ylidene]-5-(fluoromethyl)-2-methoxybenzamide]	7.92	–	6.99	–
COc1ccc(Cl)cc1C(=O)/N=c1\sn(C(C)(C)C)cc1CN=[N+]=[N-] [Example 32, N-[(5Z)-4-(azidomethyl)-2-tert-butylisothiazol-5(2H)-ylidene]-5-chloro-2-methoxybenzamide]	7.70	6.77	–	–
CCCCc1cn(C(C)(C)C)s/c1=N\C(=O)[C@]1(C)CC[C@H](C(=O)N2CC(O)C2)C1(C)C [Example 180, (1R,3S)—N-[(5Z)-4-butyl-2-tert-butylisothiazol-5(2H)-ylidene]-3-[(3-hydroxyazetidin-1-yl)carbonyl]-1,2,2-trimethylcyclopentanecarboxamide]	7.43	–	6.59	–
CCCC1CCc2c(/c(=N/C(=O)c3cc(Cl)ccc3OC)sn2C(C)(C)C)C1 (stereo not shown) [Example 9, N-[(3Z)-1-tert-butyl-5-propyl-4,5,6,7-tetrahydro-2,1-benzisothiazol-3(1H)-ylidene]-5-chloro-2-methoxybenzamide]	9.38	9.05	–	–
CCCCc1cn(C(C)(C)C)s/c1=N\C(=O)C12CC3CC(C1)CC(C(=O)OC)(C3)C2 [Example 265, Methyl 3-({[(5Z)-4-butyl-2-tert-butylisothiazol-5(2H)-ylidene]amino}carbonyl)adamantane-1-carboxylate]	10.15	9.49	–	–
CCCCc1cn(C(C)(C)C)s/c1=N\C(=O)[C@]1(C)CC[C@H](C(=O)NCC(F)(F)F)C1(C)C [Example 238, (1R,3S)—N^1-[(5Z)-4-butyl-2-tert-butylisothiazol-5(2H)-ylidene]-1,2,2-trimethyl-N^3-(2,2,2-trifluoroethyl)cyclopentane-1,3-dicarboxamide]	7.85	7.64	–	–
CCCCc1cn(C(C)(C)C)s/c1=N\C(=O)[C@]1(C)CC[C@H](NC(=O)c2ccccc2)C1(C)C [Example 251, N-[(1S,3R)-3-({[(5Z)-4-butyl-2-tert-butylisothiazol-5(2H)-ylidene]amino}carbonyl)-2,2,3-trimethylcyclopentyl]benzamide]	7.22	7.22	–	–
CCCCc1cn(C(C)(C)C)s/c1=N\C(=O)[C@]1(C)CC[C@H](NC(=O)N2CCCC2)C1(C)C [Example 244, N-[(1S,3R)-3-({[(5Z)-4-butyl-2-tert-butylisothiazol-5(2H)-ylidene]amino}carbonyl)-2,2,3-trimethylcyclopentyl]pyrrolidine-1-carboxamide]	–	7.38	–	6.82
CCCCc1cn(C(C)(C)C)s/c1=N\C(=O)c1cc(C=NOC)ccc1OC [Example 57, N-[(5Z)-4-butyl-2-tert-butylisothiazol-5(2H)-ylidene]-2-methoxy-5-[(methoxyimino)methyl]benzamide]	7.74	–	6.72	–
CCCCc1cn(C(C)(C)C)s/c1=N\C(=O)[C@]1(C)CC[C@H](C2=NCCCO2)C1(C)C [Example 243, (1R,3S)—N-[(5Z)-4-butyl-2-tert-butylisothiazol-5(2H)-ylidene]-3-(5,6-dihydro-4H-1,3-oxazin-2-yl)-1,2,2-trimethylcyclopentanecarboxamide]	7.85	7.39	–	–
COc1ccc(Cl)cc1C(=O)/N=c1\sn(C(C)(C)C)cc1Cc1cccs1 [Example 54, N-[(5Z)-2-tert-butyl-4-(thien-2-ylmethyl)isothiazol-5(2H)-ylidene]-5-chloro-2-methoxybenzamide]	9.00	7.77	–	–
CCCCc1cn(C(C)(C)C)s/c1=N\S(=O)(=O)c1cc(Cl)ccc1OC [Example 115, N-[(5Z)-4-butyl-2-tert-butylisothiazol-5(2H)-ylidene]-5-chloro-2-methoxybenzenesulfonamide]	7.48	7.28	–	–
CCCCc1cn(C(C)(C)C)s/c1=N\C(=O)[C@]1(C)CC[C@H](NC(=O)N2CCOCC2)C1(C)C [Example 250, N-[(1S,3R)-3-({[(5Z)-4-butyl-2-tert-butylisothiazol-5(2H)-ylidene]amino}carbonyl)-2,2,3-trimethylcyclopentyl]morpholine-4-carboxamide]	7.12	7.32	–	–
CCCCc1cn(C(C)(C)C)s/c1=N\C(=O)[C@]1(C)CC[C@H](NC(=O)NC)C1(C)C [Example 252, (1R,3S)—N-[(5Z)-4-butyl-2-tert-butylisothiazol-5(2H)-ylidene]-1,2,2-trimethyl-3-{[(methylamino)carbonyl]amino}cyclopentanecarboxamide]	7.73	8.21	–	–
COc1ccc(Cl)cc1C(=O)/N=c1\sn(C(C)(C)C)cc1Cc1ccccc1 [Example 35, N-[(5Z)-4-benzyl-2-tert-butylisothiazol-5(2H)-ylidene]-5-chloro-2-methoxybenzamide]	8.96	8.04	–	–
CCCCc1cn(C(C)(C)C)s/c1=N\C(=O)[C@]1(C)CC[C@H](C(=O)NN2CCCC2)C1(C)C [Example 249, (1R,3S)—N^1-[(5Z)-4-butyl-2-tert-butylisothiazol-5(2H)-ylidene]-1,2,2-trimethyl-N^3-pyrrolidin-1-ylcyclopentane-1,3-dicarboxamide]	–	–	6.96	6.49
C#Cc1ccc(OC)c(C(=O)/N=c2\sn(C(C)(C)C)cc2CCCC)c1 [Example 62, N-[(5Z)-4-butyl-2-tert-butylisothiazol-5(2H)-ylidene]-5-ethynyl-2-methoxybenzamide]	8.51	7.57	–	–
COc1ccc(Cl)cc1C(=O)/N=c1\sn(C(C)(C)C)cc1C(O)c1cccs1 (stereo not shown) [Example 44, N-[(5Z)-2-tert-butyl-4-[hydroxy(thien-2-yl)methyl]isothiazol-5(2H)-ylidene]-5-chloro-2-methoxybenzamide]	8.68	7.57	–	–
CC(C)Cc1cn(C(C)(C)C)s/c1=N\C(=O)c1cc(C(F)(F)F)ccc1OCc1ccccn1 [Example 200, N-[(5Z)-2-tert-butyl-4-isobutylisothiazol-5(2H)-ylidene]-2-(pyridin-2-ylmethoxy)-5-(trifluoromethyl)benzamide]	–	–	6.33	6.41
CCCCc1cn(C(C)(C)C)s/c1=N\C(=O)[C@]1(C)CC[C@H](C(=O)NCc2cccnc2)C1(C)C [Example 235, (1R,3S)—N^1-[(5Z)-4-butyl-2-tert-butylisothiazol-5(2H)-ylidene]-1,2,2-trimethyl-N^3-(pyridin-3-ylmethyl)cyclopentane-1,3-dicarboxamide]	–	–	6.49	6.59
